Key:
Type in all cases: cell-based
IL-6 (THP-1 cells) = experiment: IL-6 inhibition in LPS-stimulated THP-1 cells (HTRF); conditions: Homo sapiens; for EC50: IL-6 in THP-1 cells, LPS 500 ng/mL, 22 hours; for inhibition at 10 µM: given where EC50 >10 μM, IL-6, THP-1 cells, LPS, read-out: percent inhibition at 10 μM
Procedure, shortened: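 THP-1 cells, serum-reduced (1% FBS) for 24 h, were preincubated with compound (10-point 1:3 series from 10 μM, 0.1% DMSO) for 2 h, then stimulated with 500 ng/mL LPS for 22 h at 37° C. IL-6 was read by HTRF (665/620 nm ratio) and normalized to DMSO. EC50 from four-parameter fit; % inhibition at 10 μM given if EC50 >10 μM.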

[1] = tested on: Wnt activity (Sp5-Luc reporter, SW480 colon carcinoma cells); experiment: Wnt activity screening assay, Sp5-Luc reporter gene in SW480 cells; conditions: Homo sapiens; for EC50: overnight incubation; for inhibition at 10 µM: given where EC50 >10 μM, read-out: percent inhibition at 10 μM
Procedure, shortened: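 Wnt-driven firefly luciferase in SW480 colon carcinoma cells reports pathway activity after overnight compound exposure (10 μM top concentration, 3-fold steps). Signal is normalized to DMSO controls.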

SW480 colon cancer cells = experiment: Cell viability assay (CellTiter-Blue); conditions: Homo sapiens, 96 h, four days; for inhibition at 10 µM: given where EC50 >10 μM, read-out: percent inhibition at 10 μM
Procedure, shortened: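 Approximately 2×10^3 SW480 cells per well are seeded with compound (8 points, threefold steps, top 10 μM) and incubated four days at 37 °C. CellTiter-Blue is then added for about 3 h and fluorescence read. Non-linear regression gives EC50; for values beyond 10 μM, percent inhibition at that concentration is listed.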

Compound	EC50 (IL-6 (THP-1 cells)) [µM]	inhibition at 10 µM (IL-6 (THP-1 cells)) [%]	EC50 [1] [µM]	EC50 (SW480 colon cancer cells) [µM]	inhibition at 10 µM (SW480 colon cancer cells) [%]	inhibition at 10 µM [1] [%]
CCCCC(=O)Nc1cncc(-c2cc3c(-c4cc5c(-c6ccccc6F)ccnc5[nH]4)n[nH]c3cn2)c1 [Compound 75, N-(5-(3-(4-(2-Fluorophenyl)-1H-pyrrolo[2,3-b]pyridin-2-yl)-1H-pyrazolo [3,4-c]pyridin-5-yl)pyridin-3-yl)pentanamide]	> 10	0	0.542	0.242		
O=C(Nc1cncc(-c2cc3c(-c4cc5c(-c6ccccc6F)ccnc5[nH]4)n[nH]c3cn2)c1)C1CCCCC1 [Compound 79, N-(5-(3-(4-(2-Fluorophenyl)-1H-pyrrolo[2,3-b]pyridin-2-yl)-1H-pyrazolo [3,4-c]pyridin-5-yl)pyridin-3-yl)cyclohexanecarboxamide]	> 10	5.9	0.359	3.49		
CCNCc1cncc(-c2cc3c(-c4cc5c(-c6cccnc6)ccnc5[nH]4)n[nH]c3cn2)c1 [Compound 90, N-((5-(3-(4-(Pyridin-3-yl)-1H-pyrrolo[2,3-b]pyridin-2-yl)-1H-pyrazolo[3,4-c]pyridin-5-yl)pyridin-3-yl)methyl)ethanamine]	> 10	33.9	3.2	> 10	16	
CC(C)(C)C(=O)Nc1cncc(-c2cc3c(-c4cc5c(-c6cccnc6)ccnc5[nH]4)n[nH]c3cn2)c1 [Compound 92, N-(5-(3-(4-(Pyridin-3-yl)-1H-pyrrolo[2,3-b]pyridin-2-yl)-1H-pyrazolo[3,4-c]pyridin-5-yl)pyridin-3-yl)pivalamide]	> 10	23.3	> 10	> 10	14.9	3.4
O=C(Nc1cncc(-c2cc3c(-c4cc5c(-c6cccnc6)ccnc5[nH]4)n[nH]c3cn2)c1)c1ccccc1 [Compound 95, N-(5-(3-(4-(Pyridin-3-yl)-1H-pyrrolo[2,3-b]pyridin-2-yl)-1H-pyrazolo[3,4-c]pyridin-5-yl)pyridin-3-yl)benzamide]	> 10	31.8	> 10	> 10	14.2	8.7
CC(C)Nc1cncc(-c2cc3c(-c4cc5c(-c6cccnc6)ccnc5[nH]4)n[nH]c3cn2)c1 [Compound 96, N-Isopropyl-5-(3-(4-(pyridin-3-yl)-1H-pyrrolo[2,3-b]pyridin-2-yl)-1H-pyrazolo[3,4-c]pyridin-5-yl)pyridin-3-amine]	> 10	23.5	> 10	> 10	20.5	30.3
c1cncc(-c2ccnc3[nH]c(-c4n[nH]c5cnc(-c6cncc(CN7CCCC7)c6)cc45)cc23)c1 [Compound 98, 3-(4-(Pyridin-3-yl)-1H-pyrrolo[2,3-b]pyridin-2-yl)-5-(5-(pyrrolidin-1-ylmethyl)pyridin-3-yl)-1H-pyrazolo[3,4-c]pyridine]	> 10	27.7	> 10	> 10	11.5	25.2
CCCCC(=O)Nc1cncc(-c2cc3c(-c4cc5c(-c6cccnc6)ccnc5[nH]4)n[nH]c3cn2)c1 [Compound 103, N-(5-(3-(4-(Pyridin-3-yl)-1H-pyrrolo[2,3-b]pyridin-2-yl)-1H-pyrazolo[3,4-c]pyridin-5-yl)pyridin-3-yl)pentanamide]	> 10	17.8	> 10	> 10	7.4	7.8
c1cncc(-c2ccnc3[nH]c(-c4n[nH]c5cnc(-c6cncnc6)cc45)cc23)c1 [Compound 111, 3-(4-(Pyridin-3-yl)-1H-pyrrolo[2,3-b]pyridin-2-yl)-5-(pyrimidin-5-yl)-1H-pyrazolo[3,4-c]pyridine]	> 10	37.4	> 10	> 10	17.3	7.8

Source: US10285982B2, “3-(1H-pyrrolo[2,3-B]pyridin-2-yl)-1H-pyrazolo[3,4-C]pyridines and therapeutic uses thereof” (Samumed, LLC, priority 2015, dated 2019)
